How the values were obtained:
Assay type in all cases: in vivo
[1] = system: Amaranthus retoflexus (AMARE); test: Pre-emergence Test (glasshouse, percentage damage to the plant); conditions: 1000 g/ha unless otherwise stated; for percentage damage to the plant, AMARE: five-point scale
[2] = system: Zea mays (ZEAMX); test: as above; conditions: 1000 g/ha unless otherwise stated; for percentage damage to the plant, ZEAMX: five-point scale
[3] = system: Setaria faberi (SETFA); test: as above; conditions: 1000 g/ha unless otherwise stated; for percentage damage to the plant, SETFA: five-point scale
[4] = system: Ipomoea hederacea (IPOHE); test: as above; conditions: 1000 g/ha unless otherwise stated; for percentage damage to the plant, IPOHE: five-point scale
[5] = system: Echinochloa crus-galli (ECHCG); test: as above; conditions: 1000 g/ha unless otherwise stated; for percentage damage to the plant, ECHCG: five-point scale
[6] = system: Zea mays (ZEAMX); test: Post-emergence Test (glasshouse, percentage damage to the plant); conditions: 1000 g/ha unless otherwise stated, evaluated after 13 days; for Post-emergence Test ZEAMX, percentage damage to the plant (five-point scale): post-emergence spray
Experimental: (§1) Seeds of a variety of test species are sown in standard soil in pots (Amaranthus retoflexus (AMARE), Solanum nigrum (SOLNI), Setaria faberi (SETFA), Lolium perenne (LOLPE), Echinochloa crus-galli (ECHCG), Ipomoea hederacea (IPOHE), Abutilon theophrasti (ABUTH), Zea mays (ZEAMX), Amaranthus palmeri (AMAPA). After 8 days cultivation under controlled conditions in a glasshouse (at 24° C./16° C., day/night; 14 hours light; 65% humidity), the plants are sprayed with an aqueous spray solution derived from the formulation of the technical active ingredient in acetone/water (50:50) solution containing 0.5% Tween 20 (polyoxyethelyene sorbitan monolaurate, CAS RN 9005-64-5). Compounds are applied at 1000 g/ha unless otherwise stated. The test plants are then grown in a glasshouse under controlled conditions in a glasshouse (at 24° C./16° C., day/night; 14 hours light; 65% humidity) and watered twice daily. After 13 days the test is evaluated for the percentage damage caused to the plant. The biological activities are shown in the following table on a five-point scale (5=81-100%; 4=61-80%; 3=41-60%; 2=21-40%; 1=0-20%).

[7] = system: Amaranthus retoflexus (AMARE); test: as above; conditions: 1000 g/ha unless otherwise stated, evaluated after 13 days; for Post-emergence Test AMARE, percentage damage to the plant (five-point scale): post-emergence spray
Experimental: as §1

[8] = system: Setaria faberi (SETFA); test: as above; conditions: 1000 g/ha unless otherwise stated, evaluated after 13 days; for Post-emergence Test SETFA, percentage damage to the plant (five-point scale): post-emergence spray
Experimental: as §1

[9] = system: Ipomoea hederacea (IPOHE); test: as above; conditions: 1000 g/ha unless otherwise stated, evaluated after 13 days; for Post-emergence Test IPOHE, percentage damage to the plant (five-point scale): post-emergence spray
Experimental: as §1

[10] = system: Abutilon theophrasti (ABUTH); test: Pre-emergence Test (glasshouse, percentage damage to the plant); conditions: 1000 g/ha unless otherwise stated; for percentage damage to the plant, ABUTH: five-point scale

Row | SMILES | percentage damage to the plant, AMARE [1] | percentage damage to the plant, ZEAMX [2] | percentage damage to the plant, SETFA [3] | percentage damage to the plant, IPOHE [4] | percentage damage to the plant, ECHCG [5] | Post-emergence Test ZEAMX, percentage damage to the plant (five-point scale) [6] | Post-emergence Test AMARE, percentage damage to the plant (five-point scale) [7] | Post-emergence Test SETFA, percentage damage to the plant (five-point scale) [8] | Post-emergence Test IPOHE, percentage damage to the plant (five-point scale) [9] | percentage damage to the plant, ABUTH [10] | percentage damage to the plant, AMARE (five-point scale) ([1]; Amaranthus retoflexus) | percentage damage to the plant, ZEAMX (five-point scale) ([2]; Zea mays) | percentage damage to the plant, SETFA (five-point scale) ([3]; Setaria faberi) | percentage damage to the plant, IPOHE (five-point scale) ([4]; Ipomoea hederacea) | percentage damage to the plant, ECHCG (five-point scale) ([5]; Echinochloa crus-galli) | ZEAMX, percentage damage caused to the plant (five-point scale) ([6]; post-emergence) | AMARE, percentage damage caused to the plant (five-point scale) ([7]; post-emergence) | SETFA, percentage damage caused to the plant (five-point scale) ([8]; post-emergence) | IPOHE, percentage damage caused to the plant (five-point scale) ([9]; post-emergence) | percentage damage to the plant, ABUTH (five-point scale) ([10]; Abutilon theophrasti)
1 | CCn1c(C)c(-c2ccc(F)cc2OC)c(=O)c(C(=O)O)c1-c1ccc(Cl)cc1 [Compound 186, 2-(4-chlorophenyl)-1-ethyl-5-(4-fluoro-2-methoxy-phenyl)-6-methyl-4-oxo-pyridine-3-carboxylic acid] | 1 (1=0-20%) | 0 | 2 (2=21-40%) | 1 (1=0-20%) | 1 (1=0-20%) | 2 (2=21-40%) | 1 (1=0-20%) | 3 (3=41-60%) | 2 (2=21-40%) | 3 (3=41-60%) |  |  |  |  |  |  |  |  |  | 
2 | CCn1c(C)c(-c2ccc(C#N)c(C(F)(F)F)c2)c(=O)c(C(=O)O)c1-c1ccc(Cl)cc1 [Compound 187, 2-(4-chlorophenyl)-5-[4-cyano-3-(trifluoromethyl)phenyl]-1-ethyl-6-methyl-4-oxo-pyridine-3-carboxylic acid] | 1 (1=0-20%) | 1 (1=0-20%) | 2 (2=21-40%) | 2 (2=21-40%) | 1 (1=0-20%) | 2 (2=21-40%) | 3 (3=41-60%) | 2 (2=21-40%) | 3 (3=41-60%) | 3 (3=41-60%) |  |  |  |  |  |  |  |  |  | 
3 | CCn1c(C)c(-c2cc(Cl)cc(Cl)c2)c(=O)c(C(=O)O)c1-c1ccc(Cl)cc1 [Compound 188, 2-(4-chlorophenyl)-5-(3,5-dichlorophenyl)-1-ethyl-6-methyl-4-oxo-pyridine-3-carboxylic acid] | 0 | 0 | 0 | 0 | 0 | 1 (1=0-20%) | 0 | 0 | 1 (1=0-20%) | 0 |  |  |  |  |  |  |  |  |  | 
4 | CCn1c(C)c(-c2cc(OC)ccc2F)c(=O)c(C(=O)O)c1-c1ccc(Cl)cc1 [Compound 189, 2-(4-chlorophenyl)-1-ethyl-5-(2-fluoro-5-methoxy-phenyl)-6-methyl-4-oxo-pyridine-3-carboxylic acid] | 1 (1=0-20%) | 0 | 2 (2=21-40%) | 1 (1=0-20%) | 2 (2=21-40%) | 1 (1=0-20%) | 2 (2=21-40%) | 2 (2=21-40%) | 1 (1=0-20%) | 3 (3=41-60%) |  |  |  |  |  |  |  |  |  | 
5 | CCn1c(C)c(-c2cc(F)cc(C#N)c2)c(=O)c(C(=O)O)c1-c1ccc(Cl)cc1 [Compound 190, 2-(4-chlorophenyl)-5-(3-cyano-5-fluoro-phenyl)-1-ethyl-6-methyl-4-oxo-pyridine-3-carboxylic acid] | 1 (1=0-20%) | 2 (2=21-40%) | 2 (2=21-40%) | 1 (1=0-20%) | 2 (2=21-40%) | 1 (1=0-20%) | 1 (1=0-20%) | 2 (2=21-40%) | 1 (1=0-20%) | 0 |  |  |  |  |  |  |  |  |  | 
6 | CCn1c(C)c(-c2ccc(Cl)cc2Cl)c(=O)c(C(=O)O)c1-c1ccc(Cl)cc1 [Compound 193, 2-(4-chlorophenyl)-5-(2,4-dichlorophenyl)-1-ethyl-6-methyl-4-oxo-pyridine-3-carboxylic acid] | 2 (2=21-40%) | 1 (1=0-20%) | 2 (2=21-40%) | 0 | 1 (1=0-20%) | 2 (2=21-40%) | 5 (5=81-100%) | 4 (4=61-80%) | 3 (3=41-60%) | 2 (2=21-40%) |  |  |  |  |  |  |  |  |  | 
7 | CCn1c(C)c(-c2ccc([N+](=O)[O-])cc2)c(=O)c(C(=O)O)c1-c1ccc(Cl)cc1 [Compound 194, 2-(4-chlorophenyl)-1-ethyl-6-methyl-5-(4-nitrophenyl)-4-oxo-pyridine-3-carboxylic acid] | 0 | 2 (2=21-40%) | 0 | 0 | 0 | 1 (1=0-20%) | 0 | 2 (2=21-40%) | 0 | 0 |  |  |  |  |  |  |  |  |  | 
8 | CCn1c(C)c(-c2ccc(Cl)c(Cl)c2)c(=O)c(C(=O)O)c1-c1ccc(Cl)cc1 [Compound 195, 2-(4-chlorophenyl)-5-(3,4-dichlorophenyl)-1-ethyl-6-methyl-4-oxo-pyridine-3-carboxylic acid] | 2 (2=21-40%) | 0 | 1 (1=0-20%) | 0 | 2 (2=21-40%) | 2 (2=21-40%) | 4 (4=61-80%) | 2 (2=21-40%) | 3 (3=41-60%) | 0 |  |  |  |  |  |  |  |  |  | 
9 | CCn1c(C)c(-c2ccc(Cl)c(C#N)c2)c(=O)c(C(=O)O)c1-c1ccc(Cl)cc1 [Compound 196, 5-(4-chloro-3-cyano-phenyl)-2-(4-chlorophenyl)-1-ethyl-6-methyl-4-oxo-pyridine-3-carboxylic acid] | 1 (1=0-20%) | 0 | 1 (1=0-20%) | 1 (1=0-20%) | 2 (2=21-40%) | 2 (2=21-40%) | 3 (3=41-60%) | 3 (3=41-60%) | 3 (3=41-60%) | 0 |  |  |  |  |  |  |  |  |  | 
10 | CCn1c(C)c(-c2cc(C)c(Cl)c(C)c2)c(=O)c(C(=O)O)c1-c1ccc(Cl)cc1 [Compound 197, 5-(4-chloro-3,5-dimethyl-phenyl)-2-(4-chlorophenyl)-1-ethyl-6-methyl-4-oxo-pyridine-3-carboxylic acid] | 0 | 0 | 0 | 0 | 0 | 1 (1=0-20%) | 1 (1=0-20%) | 1 (1=0-20%) | 2 (2=21-40%) | 0 |  |  |  |  |  |  |  |  |  | 
11 | CCn1c(C)c(-c2cc(F)c(F)c(F)c2)c(=O)c(C(=O)O)c1-c1ccc(Cl)cc1 [Compound 200, 2-(4-chlorophenyl)-1-ethyl-6-methyl-4-oxo-5-(3,4,5-trifluorophenyl)pyridine-3-carboxylic acid] |  |  |  |  |  |  |  |  |  |  | 0 | 0 | 2 (2=21-40%) | 2 (2=21-40%) | 3 (3=41-60%) | 2 (2=21-40%) | 1 (1=0-20%) | 3 (3=41-60%) | 3 (3=41-60%) | 3 (3=41-60%)
